Several values for one entry are separate records, joined by “and”; a condition that tells them apart may be missing. Equal values may be shown once. Numbers after ± are expanded uncertainties.
Settings: Crystal, Calculated from knudsen effusion weight loss

Nc1cc(Cl)c(Cl)cc1[N+](=O)[O-] [4,5-dichloro-2-nitrobenzenamine]
Settings | vapor or sublimation pressure
351.32 K | 0.000199 ± 1e-05 kPa and 0.000196 ± 1e-05 kPa and 0.000193 ± 1e-05 kPa
353.21 K | 0.000251 ± 1.3e-05 kPa and 0.000243 ± 1.2e-05 kPa and 0.000239 ± 1.2e-05 kPa
355.25 K | 0.000288 ± 1.4e-05 kPa and 0.000286 ± 1.4e-05 kPa
357.24 K | 0.000364 ± 1.8e-05 kPa and 0.000355 ± 1.8e-05 kPa
359.42 K | 0.000463 ± 2.3e-05 kPa and 0.000453 ± 2.3e-05 kPa and 0.000452 ± 2.3e-05 kPa
361.45 K | 0.000565 ± 2.8e-05 kPa and 0.000558 ± 2.8e-05 kPa and 0.000552 ± 2.8e-05 kPa
363.23 K | 0.000665 ± 3.3e-05 kPa and 0.000673 ± 3.4e-05 kPa and 0.000675 ± 3.4e-05 kPa
365.49 K | 0.000831 ± 4.2e-05 kPa and 0.000843 ± 4.2e-05 kPa and 0.000807 ± 4e-05 kPa
367.38 K | 0.000995 ± 5e-05 kPa and 0.000996 ± 5e-05 kPa and 0.000976 ± 4.9e-05 kPa

Source: the NIST ThermoML archive (doi:10.1016/j.jct.2009.05.013)
